The results in this text go back to US9573956B2, “Compounds as dual inhibitors of phosphodiesterases and histone deacetylases” (FUNDACIÓN PARA LA INVESTIGACIÓN MÉDICA APLICADA, priority 2013, dated 2017).

The target of series [1] is T1, PDE5A (Homo sapiens, UniProt O76074).
T1 construct: they are full-length with N-terminal GST tag; GST (N); purchased BPS Biosciences 60050; host or cells: baculovirus infected Sf9 cells
Briefly: PDE enzyme activity assay (HTRF cGMP), PDE5A. In kind it is biochemical. Particulars: recombinant enzyme; read-out: PDE5A1 inhibition (IC50).

For series [2], the target named is HDAC1 (Homo sapiens, UniProt Q13547). Briefly: HDAC enzyme activity assay (fluorogenic substrate), HDAC1. The note with it: recombinant enzyme; read-out: HDAC1 inhibition (IC50). In kind it is biochemical.
Chain of HDAC1 (Q13547 whole entry): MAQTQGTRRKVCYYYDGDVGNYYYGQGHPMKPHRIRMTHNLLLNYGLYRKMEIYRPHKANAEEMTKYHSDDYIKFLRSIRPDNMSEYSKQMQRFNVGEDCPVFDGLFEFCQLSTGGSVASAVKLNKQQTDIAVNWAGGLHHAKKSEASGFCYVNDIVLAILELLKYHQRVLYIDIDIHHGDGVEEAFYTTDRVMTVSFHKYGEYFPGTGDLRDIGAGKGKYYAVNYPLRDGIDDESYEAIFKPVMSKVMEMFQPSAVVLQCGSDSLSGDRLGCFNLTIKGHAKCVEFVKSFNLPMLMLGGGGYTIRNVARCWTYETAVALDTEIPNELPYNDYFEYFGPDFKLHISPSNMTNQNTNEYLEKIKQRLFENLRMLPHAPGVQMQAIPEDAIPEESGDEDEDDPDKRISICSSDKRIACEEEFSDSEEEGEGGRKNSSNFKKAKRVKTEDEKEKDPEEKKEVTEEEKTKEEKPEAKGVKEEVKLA
The target of series [3] is T2, HDAC2 (Homo sapiens, UniProt Q92769).
T2 construct: NM_001527; Cat. #50002) is full-length with C-terminal his tag; His (C); purchased BPS Biosciences 50002; host or cells: baculovirus infected Sf9 cells
T2 sequence (Q92769 whole entry): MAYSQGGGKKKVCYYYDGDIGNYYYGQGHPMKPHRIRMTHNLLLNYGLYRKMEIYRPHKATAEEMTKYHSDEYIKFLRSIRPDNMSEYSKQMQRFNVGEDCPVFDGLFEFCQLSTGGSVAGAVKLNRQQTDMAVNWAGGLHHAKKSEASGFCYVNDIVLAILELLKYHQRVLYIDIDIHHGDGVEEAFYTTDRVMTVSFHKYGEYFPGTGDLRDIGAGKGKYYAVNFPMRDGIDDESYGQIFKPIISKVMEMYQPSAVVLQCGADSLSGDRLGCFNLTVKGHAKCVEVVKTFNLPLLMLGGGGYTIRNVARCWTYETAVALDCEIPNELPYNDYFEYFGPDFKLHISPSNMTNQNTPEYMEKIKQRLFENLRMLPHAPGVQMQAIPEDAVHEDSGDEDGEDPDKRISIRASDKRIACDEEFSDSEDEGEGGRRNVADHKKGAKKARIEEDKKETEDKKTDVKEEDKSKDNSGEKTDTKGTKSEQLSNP
Briefly: HDAC enzyme activity assay (fluorogenic substrate), HDAC2. In kind it is biochemical. The note with it: recombinant enzyme; read-out: HDAC2 inhibition (IC50).

In series [4] the target is T3, HDAC3 (Homo sapiens, UniProt O15379).
T3 construct: is full-length with C-terminal his tag and human NCOR2, N-terminal GST tag; His (C); purchased BPS Biosciences 50003; host or cells: baculovirus infected Sf9 cells
T3 sequence (O15379 whole entry): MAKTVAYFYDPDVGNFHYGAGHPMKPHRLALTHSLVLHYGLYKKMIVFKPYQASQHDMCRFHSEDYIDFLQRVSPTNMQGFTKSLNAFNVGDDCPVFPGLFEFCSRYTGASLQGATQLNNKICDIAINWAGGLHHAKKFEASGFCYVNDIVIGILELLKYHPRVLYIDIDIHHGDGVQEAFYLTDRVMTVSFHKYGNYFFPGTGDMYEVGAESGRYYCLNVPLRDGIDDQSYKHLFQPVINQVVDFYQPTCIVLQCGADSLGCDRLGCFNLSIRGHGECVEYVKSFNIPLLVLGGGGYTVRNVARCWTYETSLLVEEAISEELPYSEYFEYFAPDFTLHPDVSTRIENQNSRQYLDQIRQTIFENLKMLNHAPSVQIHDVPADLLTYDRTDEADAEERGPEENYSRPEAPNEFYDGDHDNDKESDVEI
T3 sequence (Q9Y618 395-489 partner limits assumed): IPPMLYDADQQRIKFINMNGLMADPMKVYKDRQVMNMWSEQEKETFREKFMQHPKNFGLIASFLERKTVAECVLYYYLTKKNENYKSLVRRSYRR
Briefly: HDAC enzyme activity assay (fluorogenic substrate), HDAC3. In kind it is biochemical. The note with it: recombinant enzyme; read-out: HDAC3 inhibition (IC50).

The target of series [5] is T4, HDAC6 (Homo sapiens, UniProt Q9UBN7).
T4 construct: BC069243; Cat. #50006) is full-length with N-terminal GST tag; GST (N); purchased BPS Biosciences 50006; host or cells: baculovirus infected Sf9 cells
T4 sequence (Q9UBN7 1-1215): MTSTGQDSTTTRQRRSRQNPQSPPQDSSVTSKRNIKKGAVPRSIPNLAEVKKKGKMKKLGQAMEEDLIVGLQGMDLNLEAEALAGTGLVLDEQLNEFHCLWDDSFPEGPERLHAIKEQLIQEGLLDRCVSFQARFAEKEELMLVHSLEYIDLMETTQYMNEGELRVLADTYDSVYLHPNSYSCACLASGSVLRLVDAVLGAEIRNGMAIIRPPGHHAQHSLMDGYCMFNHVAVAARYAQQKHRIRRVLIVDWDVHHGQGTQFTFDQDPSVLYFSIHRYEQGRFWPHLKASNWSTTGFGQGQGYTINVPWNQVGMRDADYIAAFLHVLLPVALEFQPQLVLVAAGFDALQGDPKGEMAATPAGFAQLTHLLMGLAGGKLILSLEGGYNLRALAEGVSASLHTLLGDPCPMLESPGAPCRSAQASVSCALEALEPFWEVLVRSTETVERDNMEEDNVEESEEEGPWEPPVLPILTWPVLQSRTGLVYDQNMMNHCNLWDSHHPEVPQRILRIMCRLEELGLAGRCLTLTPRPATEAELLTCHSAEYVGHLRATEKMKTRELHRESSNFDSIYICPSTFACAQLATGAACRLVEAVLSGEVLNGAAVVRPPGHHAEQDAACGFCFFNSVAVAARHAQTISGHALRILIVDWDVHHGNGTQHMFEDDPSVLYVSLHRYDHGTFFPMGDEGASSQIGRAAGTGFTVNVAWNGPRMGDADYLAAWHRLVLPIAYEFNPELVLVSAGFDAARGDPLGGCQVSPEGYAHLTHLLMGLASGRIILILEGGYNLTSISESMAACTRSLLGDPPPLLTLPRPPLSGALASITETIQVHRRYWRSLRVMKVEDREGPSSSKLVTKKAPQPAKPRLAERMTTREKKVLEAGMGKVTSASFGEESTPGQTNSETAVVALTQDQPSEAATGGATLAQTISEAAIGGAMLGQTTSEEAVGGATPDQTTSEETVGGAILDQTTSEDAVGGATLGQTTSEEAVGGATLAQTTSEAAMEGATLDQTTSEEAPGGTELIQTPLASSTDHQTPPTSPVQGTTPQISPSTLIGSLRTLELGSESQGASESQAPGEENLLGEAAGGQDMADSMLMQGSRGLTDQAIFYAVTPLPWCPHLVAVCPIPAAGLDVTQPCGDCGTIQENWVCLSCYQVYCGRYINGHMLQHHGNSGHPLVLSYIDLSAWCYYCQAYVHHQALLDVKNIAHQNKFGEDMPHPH
Briefly: HDAC enzyme activity assay (fluorogenic substrate), HDAC6. The class given is biochemical. The note with it: recombinant enzyme; read-out: HDAC6 inhibition (IC50).

Series [6] in a line: Pharmacokinetics, plasma and brain concentrations in wild type mice. In kind it is in vivo. The note with it: mouse, ip; for CMax (brain; nmol/Kg): in vivo; for Tmax / Cmax: single intraperitoneal injection, wild type mice; for Tmax: time of maximum concentration in brain; for Cmax: plasma, at tMax, (Standard Deviation). How it is done:
Plasma and brain samples for measuring compounds concentrations were collected at predetermined times from four wild type mice per point. Three time points were measured: 0.25, 0.5 and 1.0 hour. Compounds concentration was measured using a Xevo-TQ MS triple quadropole mass spectrometer with an electrospray ionization (ESI) source and an Acquity UPLC (Waters, Manchester, UK).
[…]. Compounds were injected as a single intraperitoneal injection. Animals were killed by decapitation.
Plasma. Blood was collected into tubes containing EDTA and plasma was collected via centrifugation (4° C., 13200 rpm, 5 min) and stored at −80° C. until analysis.
Brain. Brains were collected immediately after mice death. The brains were excised, weighed and frozen at −80° C. until further process for analysis.
Chromatographic separation was performed by gradient elution at 0.4 mL/min using an Acquity UPLC BEH C18 column (100×2.1 mm, 1.7 μm particle size; Waters). The mobile phase consisted of A: water with 0.1% formic acid, B: methanol with 0.1% formic acid. After 1.5 min at the initial condition of 95% A, solvent B was increased from 5% to 100% over 2 min, maintained at 100% for 1.5 min, then a linear gradient to initial conditions was applied for 0.1 min and maintained for 3.4 minutes to re-equilibrate the column, giving a cycle time of 8.5 min. The autosampler temperature was set at 10° C. and column temperature at 45° C.
Compounds were monitored using a triple quadrupole mass spectrometer equipped with an electrospray ionization interface. For detection and quantification, a capillary voltage of 3.5 kV and a cone voltage of 38 V were used. Source and desolvation temperatures were 150° C. and 650° C., respectively. Ultra-high purity nitrogen was used for cone gas (75 L h^−1) and desolvation gas (1000 L h^−1). The electrospray ionization operated in the positive mode, and the collision gas used was ultra-pure argon at a flow rate of 0.15 mL min^−1.
Quantification was achieved by external calibration using matrix-matched standards. Concentrations were calculated using a weighted least-squares linear regression (W=1/×). […]. The mixture was then agitated for 10 min and centrifuged at 13200 rpm for 5 min at 4° C. The resulting supernatants were transferred to a Ostro plate (Waters, Manchester, UK), designed to remove phospholipids. The resulting eluents were evaporated at 37° C. under a stream of nitrogen. Residues were dissolved in 75 μL of a mixture of methanol and water (50:50, v:v). A 10-uL aliquot of the resulting solution was injected onto the LC-MS/MS system for analysis. Frozen plasma samples were thawed at room temperature, vortexed thoroughly and subjected to the above described extraction procedure. Brain samples were thawed unassisted at room temperature and homogenized using a Branson 250 ultrasonic sonifier (Branson, Danbury, Conn., USA). When homogenized, 75 mg were weighted and extracted as described previously.
Concentration values obtained from the LC-MS/MS analyses are described in Table 4.

The structures appear in SMILES notation. Marks after values point to notes of the source that are not given here.

Consider `CCCc1nn(C)c2c(=O)[nH]c(-c3cc(S(=O)(=O)N4CCN(c5ncc(C(=O)NO)cn5)CC4)ccc3OCC)nc12` [Example 1-06, 2-(4-[3-(6,7-Dihydro-1-methyl-7-oxo-3-propyl-1H-pyrazolo[4,3-d]pyrimidin-5-yl)-4-ethoxyphenylsulfonyl]piperazin-1-yl)-N-hydroxypyrimidine-5-carboxamide], for which the IC50 in series [1] is less than 10 nM; in series [2] it was less than 10 nM; in series [3], 10 to 1000 nM; in series [4], 10 to 1000 nM; in series [5], 10 to 1000 nM. Moreover, the “CMax (brain; nmol/Kg)” value in series [6] (20 mg/kg) was 5.8 (1.8)^c nmol/Kg. In addition, the Tmax in series [6] (dosage 20 mg/Kg) came to 15 min. The compound further registered a Cmax in series [6] (dosage 20 mg/Kg) of 283 nM.

With `CCCc1nn(C)c2c(=O)[nH]c(-c3cc(Cc4ccc(C(=O)NO)cc4)ccc3OCC)nc12` [Example 1-15, 4-[[4-ethoxy-3-(1-methyl-7-oxo-3-propyl-6H-pyrazolo[4,3-d]pyrimidin-5-yl)phenyl]methyl]benzenecarbohydroxamic acid], the IC50 fell in the range of 10 to 1000 nM in series [1]; 10 to 1000 nM in series [2]; 1000 to 10000 nM in series [3]; 1000 to 10000 nM in series [4]; 10 to 1000 nM in series [5]. Further, in series [6] (20 mg/kg), the “CMax (brain; nmol/Kg)” value was 29 (8)^c nmol/Kg. Besides, in series [6] (dosage 20 mg/Kg), the Tmax was determined as 15 min. The Cmax in series [6] (dosage 20 mg/Kg) amounted to 653 nM.

Regarding `CCCc1nn(C)c2c(=O)[nH]c(-c3cc(Cc4ccc(C(=O)NO)s4)ccc3OCC)nc12` [Example 1-16], the IC50 in series [1] fell in the range of 10 to 1000 nM; in series [2] it was 10 to 1000 nM; in series [3], 1000 to 10000 nM; in series [4], 1000 to 10000 nM; in series [5] it was 10 to 1000 nM. For the same compound, in series [6] (20 mg/kg), the “CMax (brain; nmol/Kg)” value is recorded as 102 (7)^c nmol/Kg. For the same compound, in series [6] (dosage 20 mg/Kg), the Tmax was determined as 30 min. The compound further displayed a Cmax in series [6] (dosage 20 mg/Kg) of 11800 nM.

For `CCCc1nn(C)c2c(=O)[nH]c(-c3cc(CC4CC(C(=O)NO)C4)ccc3OCC)nc12` (racemic) [Example 1-19, 3-[[4-ethoxy-3-(1-methyl-7-oxo-3-propyl-6H-pyrazolo[4,3-d]pyrimidin-5-yl)phenyl]methyl]cyclobutanecarbohydroxamic acid], the IC50 in series [1], in series [2], in series [3], in series [4] and in series [5] was 10 to 1000 nM each time. For the same compound, the “CMax (brain; nmol/Kg)” value in series [6] (40 mg/kg) was 609 (178)^c nmol/Kg. Moreover, the Tmax in series [6] (dosage 40 mg/Kg) came out at 15 min. In series [6] (dosage 40 mg/Kg), the peak level (Cmax) was 15800 nM.
